ChEMBL document CHEMBL1151905, “Discovery of 5-substituted 2-amino-4-chloro-8-((4-methoxy-3,5-dimethylpyridin-2-yl)methyl)-7,8-dihydropteridin-6(5H)-ones as potent and selective Hsp90 inhibitors” (Bioorg Med Chem Lett, 2009)
≈ marks a conversion by molar mass, not a printed value.

Columns and labels:
BT-474 = assay: Growth inhibition of human BT474 cells; assay type: functional, cell-based
Heat shock protein HSP90 = Heat shock protein HSP90 (Homo sapiens, UniProt P07900+P08238); assay: Inhibition of HSP90 in human SKBR3 cells assessed as induction of Her2 degradation; assay type: cell-based; conditions: sk-br-3
SK-BR-3 = assay: Growth inhibition of human SKBR3 cells; assay type: functional, cell-based
HT-29 [1] = assay: Growth inhibition of human HT-29 cells; assay type: functional, cell-based
[2] = Inhibition of HSP90 by fluorescence polarization assay
MCF7 [3] = assay: Growth inhibition of human MCF7 cells; assay type: functional, cell-based
HMEC [4] = assay: Growth inhibition of HMEC cells; assay type: cell-based; conditions: Homo sapiens
HMEC [5] = assay: Selectivity index, ratio of IC50 for HMEC cells to IC50 for human SKBR3 cells; assay type: functional
MCF7 [6] = assay: Selectivity index, ratio of IC50 for HMEC cells to IC50 for human MCF7 cells; assay type: functional
HMEC [7] = assay: Selectivity index, ratio of IC50 for HMEC cells to IC50 for human BT474 cells; assay type: functional
HT-29 [8] = assay: Selectivity index, ratio of IC50 for HMEC cells to IC50 for human HT-29 cells; assay type: functional
[9] = Metabolic stability in rat liver microsomes; assay type: ADME, Microsome
[10] = Aqueous solubility at pH 3; assay type: physicochemical
[11] = Metabolic stability in human liver microsomes; assay type: ADME, Microsome
[12] = Oral bioavailability in rat; assay type: ADME, organism-based; conditions: in vivo
[13] = Metabolic stability in mouse liver microsomes; assay type: ADME, Microsome

| Structure (SMILES) | IC50 (BT-474) | IC50 (Heat shock protein HSP90) | IC50 (SK-BR-3) | IC50 (HT-29 [1]) | IC50 [2] | IC50 (MCF7 [3]) | other results |
| --- | --- | --- | --- | --- | --- | --- | --- |
| COc1c(C)cnc(CN2c3nc(N)nc(Cl)c3NC(=O)[C@H]2C)c1C | 410 nM | 350 nM | 220 nM | 470 nM | 400 nM | 790 nM |  |
| COc1c(C)cnc(CN2CC(=O)N(CCN3CCCC3)c3c(Cl)nc(N)nc32)c1C | 520 nM | 510 nM | 300 nM | 1080 nM | 660 nM | 1320 nM |  |
| COc1c(C)cnc(CN2CC(=O)N(C3CCCC3)c3c(Cl)nc(N)nc32)c1C | 290 nM | 110 nM | 120 nM | 330 nM |  | 820 nM |  |
| COc1c(C)cnc(CN2CC(=O)N(C(C)C)c3c(Cl)nc(N)nc32)c1C | 30 nM | 50 nM | 20 nM | 60 nM | 70 nM | 50 nM | IC50 (HMEC [4]): 320 nM |
| COc1nc(N)nc2c1N(CC(C)C)C(=O)CN2Cc1ncc(C)c(OC)c1C |  | 1070 nM |  |  |  |  |  |
| COc1c(C)cnc(CN2c3nc(N)nc(Cl)c3N(CC(C)C)C(=O)[C@@H]2C)c1C |  | > 5000 nM |  |  |  |  |  |
| COc1c(C)cnc(CN2CCNc3c(Cl)nc(N)nc32)c1C |  | > 5000 nM |  |  | > 5000 nM |  |  |
| COc1c(C)cnc(CN2CC(=O)N(C(=O)NCCN3CCOCC3)c3c(Cl)nc(N)nc32)c1C | > 100000 nM | > 10000 nM | > 5000 nM | 1200 nM |  | 2140 nM |  |
| COc1ccnc(CN2CC(=O)N(CC(C)C)c3c(Cl)nc(N)nc32)c1OC | 30 nM | 160 nM | 10 nM | 40 nM |  | 100 nM | IC50 (HMEC [4]): 240 nM; Ratio IC50 (HMEC [5]): 6; Ratio IC50 (MCF7 [6]): 2; Ratio IC50 (HMEC [7]): 6; Ratio IC50 (HT-29 [8]): 6 |
| COc1c(C)cnc(CN2CC(=O)N(CC(C)C)c3c(Cl)nc(N)nc32)c1C | 20 nM | 40 nM | 10 nM | 40 nM | 50 nM | 70 nM | IC50 (HMEC [4]): 130 nM; Ratio IC50 (HMEC [5]): 13; Ratio IC50 (MCF7 [6]): 2; Ratio IC50 (HMEC [7]): 6; Ratio IC50 (HT-29 [8]): 3 |
| COc1c(C)cnc(CN2c3nc(N)nc(Cl)c3N(CC(C)C)C(=O)[C@@H]2C(C)C)c1C |  | > 5000 nM |  |  |  |  |  |
| COc1c(C)cnc(Cn2c(=O)c(=O)[nH]c3c(Cl)nc(N)nc32)c1C |  | > 5000 nM |  |  |  |  |  |
| Cc1cnc(CN2CC(=O)N(CC(C)C)c3c(Cl)nc(N)nc32)c(C)c1Cl | 240 nM | 590 nM | 110 nM | 280 nM |  | 470 nM |  |
| COc1c(C)cnc(CN2CC(=O)N(CC(C)C)c3c(C)nc(N)nc32)c1C |  | 980 nM |  |  |  |  |  |
| COc1c(C)cnc(CN2CC(=O)N(CCCN3CCOCC3)c3c(Cl)nc(N)nc32)c1C | 1810 nM | 1550 nM | 1110 nM | 2950 nM |  | 2590 nM |  |
| COc1c(C)cnc(CN2c3nc(N)nc(Cl)c3NC(=O)[C@@H]2CC(C)C)c1C | 490 nM | 370 nM | 230 nM | 690 nM |  | 930 nM |  |
| COc1nc(CN2CC(=O)N(CC(C)C)c3c(Cl)nc(N)nc32)c(Cl)c(OC)c1OC |  | > 5000 nM |  |  |  |  |  |
| COc1c(C)cnc(CN2CC(=O)Nc3c(Cl)nc(N)nc32)c1C | 650 nM | 570 nM | 390 nM | 1180 nM | 880 nM | 1490 nM | half-life [9]: > 1 h; solubility [10]: 381 µM (≈ 133 µg/mL); half-life [11]: > 1 h; bioavailability [12]: 60%; half-life [13]: > 1 h |
| COc1c(C)cnc(CN2CC(OC3CCCC3)=Nc3c(Cl)nc(N)nc32)c1C | 10 nM | 10 nM | 5 nM | 20 nM |  | 40 nM |  |
| COc1c(C)cnc(CN2CC(=O)N(C)c3c(Cl)nc(N)nc32)c1C | 950 nM | 930 nM | 460 nM | 1470 nM | 960 nM | 2190 nM |  |
| COc1c(C)cnc(CN2CC(=O)N(C(C)C(=O)NCCN(C)C)c3c(Cl)nc(N)nc32)c1C (stereo not drawn) | 60 nM | 100 nM | 30 nM | 100 nM |  | 120 nM |  |
| COc1c(C)cnc(CN2c3nc(N)nc(Cl)c3NC(=O)[C@@H]2C(C)C)c1C | 760 nM | 650 nM | 430 nM | 1060 nM | 2140 nM | 1600 nM |  |
| Cc1cnc(CN2CC(=O)N(CC(C)C)c3c(Cl)nc(N)nc32)c(C)c1Br | 130 nM | 100 nM | 60 nM | 140 nM | 60 nM | 280 nM | IC50 (HMEC [4]): 180 nM |
| COc1c(C)cnc(CN2c3nc(N)nc(Cl)c3NC(=O)[C@@H]2CCO)c1C |  | 280 nM |  |  | 640 nM |  |  |
| COc1c(C)cnc(CN2c3nc(N)nc(Cl)c3NC(=O)[C@@H]2C)c1C | 470 nM | 430 nM | 250 nM | 660 nM |  | 940 nM |  |
| COc1c(C)cnc(CN2CC(=O)N(CCCC(C)C)c3c(Cl)nc(N)nc32)c1C | 1650 nM | 1910 nM | 970 nM | 2260 nM | 900 nM | 3110 nM |  |
| COc1c(C)cnc(CN2c3nc(N)nc(Cl)c3N(C(C)C)C(=O)[C@@H]2C(C)C)c1C | 20 nM | 60 nM | 5 nM | 90 nM | 80 nM | 40 nM |  |
| COc1c(C)cnc(Cn2c(=O)cnc3c(Cl)nc(N)nc32)c1C |  | > 10000 nM |  |  |  |  |  |
